Laboratory results taken from publication PMC9168183 (Redox Biology, 2022).

Biological target: T1, thioredoxin reductase (TrxR) (Rattus norvegicus, UniProt O89049)
T1 sequence (O89049 1-499): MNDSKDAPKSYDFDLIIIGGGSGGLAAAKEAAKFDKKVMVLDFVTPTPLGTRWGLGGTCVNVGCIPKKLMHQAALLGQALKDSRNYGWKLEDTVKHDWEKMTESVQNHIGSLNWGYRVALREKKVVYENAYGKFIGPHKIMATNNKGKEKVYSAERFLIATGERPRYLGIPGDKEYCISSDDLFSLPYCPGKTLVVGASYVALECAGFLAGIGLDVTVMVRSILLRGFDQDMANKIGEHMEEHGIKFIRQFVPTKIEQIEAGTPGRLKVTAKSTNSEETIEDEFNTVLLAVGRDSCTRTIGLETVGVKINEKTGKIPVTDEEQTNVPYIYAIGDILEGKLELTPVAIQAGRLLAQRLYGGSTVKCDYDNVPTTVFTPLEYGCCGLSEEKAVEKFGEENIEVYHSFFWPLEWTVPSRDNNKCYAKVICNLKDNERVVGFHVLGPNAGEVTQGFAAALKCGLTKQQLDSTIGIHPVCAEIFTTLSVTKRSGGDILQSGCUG
Test: DTNB assay with isolated TrxR, % inhibition at […]
Assay type: biochemical
Conditions: read-out: Isolated TrxR (Inhibition %)

| inhibition at 50 µM | SMILES |
| --- | --- |
| 76.9% | O=C(/C=C/c1ccc(O)cc1)c1ccc(O)cc1O [compound 4, Isoliquiritigenin] |
| 79.7% | C=C1C(=O)O[C@@H]2C[C@@]3(C)CCCC(=C)[C@@H]3C[C@H]12 [compound 5, Isoalantolactone] |
